Data published in ChEMBL document CHEMBL1156872, “Synthesis and discovery of 2,3-dihydro-3,8-diphenylbenzo[1,4]oxazines as a novel class of potent cholesteryl ester transfer protein inhibitors” (Bioorg Med Chem Lett, 2010).
In brackets after ≈: the same amount, converted by molar mass.

Assays:
[1] = biological target: T1, Cholesteryl ester transfer protein (Homo sapiens) (UniProt P11597); test: Inhibition of human cholesteryl ester transfer protein at 1 uM by scintillation proximity assay
T1 sequence (whole entry): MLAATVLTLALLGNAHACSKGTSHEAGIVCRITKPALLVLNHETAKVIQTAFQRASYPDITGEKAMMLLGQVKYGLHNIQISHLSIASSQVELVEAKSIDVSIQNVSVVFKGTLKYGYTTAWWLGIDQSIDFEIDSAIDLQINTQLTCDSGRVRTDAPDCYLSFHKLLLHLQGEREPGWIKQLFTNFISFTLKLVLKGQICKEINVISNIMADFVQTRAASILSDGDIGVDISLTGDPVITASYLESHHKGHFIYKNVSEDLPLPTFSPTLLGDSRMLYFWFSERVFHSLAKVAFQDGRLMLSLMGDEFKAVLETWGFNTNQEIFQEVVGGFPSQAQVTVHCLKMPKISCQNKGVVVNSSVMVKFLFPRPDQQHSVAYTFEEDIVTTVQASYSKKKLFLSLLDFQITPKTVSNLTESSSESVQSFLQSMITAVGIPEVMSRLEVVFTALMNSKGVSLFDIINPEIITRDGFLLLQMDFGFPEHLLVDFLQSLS

[2] = biological target: T2, Cholesteryl ester transfer protein (Homo sapiens, UniProt P11597); test: Inhibition of human cholesteryl ester transfer protein by scintillation proximity assay
T2 sequence (P11597 whole entry): T1 sequence (whole entry)

[3] = Half life in human liver microsomes; type: ADME, Microsome
Cytochrome P450 2D6 = Cytochrome P450 2D6 (Homo sapiens, UniProt P10635); test: Inhibition of CYP2D6 in human liver microsomes; type: ADME, Microsome
Chain of Cytochrome P450 2D6 (P10635 whole entry): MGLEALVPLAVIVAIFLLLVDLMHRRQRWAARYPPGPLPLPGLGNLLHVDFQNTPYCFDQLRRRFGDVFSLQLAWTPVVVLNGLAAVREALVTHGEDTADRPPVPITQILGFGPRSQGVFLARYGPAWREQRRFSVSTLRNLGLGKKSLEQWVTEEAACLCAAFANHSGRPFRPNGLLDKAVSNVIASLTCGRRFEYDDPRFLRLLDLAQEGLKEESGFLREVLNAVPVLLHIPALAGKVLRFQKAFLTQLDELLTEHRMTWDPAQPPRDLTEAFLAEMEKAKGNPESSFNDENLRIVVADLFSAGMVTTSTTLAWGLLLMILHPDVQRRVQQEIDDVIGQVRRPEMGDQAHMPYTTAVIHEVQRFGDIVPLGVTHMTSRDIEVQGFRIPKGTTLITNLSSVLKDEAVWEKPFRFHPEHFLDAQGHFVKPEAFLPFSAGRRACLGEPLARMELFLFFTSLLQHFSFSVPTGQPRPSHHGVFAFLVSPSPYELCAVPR

[4] = biological target: T2, Cholesteryl ester transfer protein; test: Inhibition of cholesteryl ester transfer protein in human plasma by [3H]CE HDL assay; type: cell-free
Cytochrome P450 1A2 = biological target: T3, Cytochrome P450 1A2 (Homo sapiens, UniProt P05177); test: Inhibition of CYP1A2 in human liver microsomes; type: ADME, Microsome
T3 sequence (P05177 whole entry): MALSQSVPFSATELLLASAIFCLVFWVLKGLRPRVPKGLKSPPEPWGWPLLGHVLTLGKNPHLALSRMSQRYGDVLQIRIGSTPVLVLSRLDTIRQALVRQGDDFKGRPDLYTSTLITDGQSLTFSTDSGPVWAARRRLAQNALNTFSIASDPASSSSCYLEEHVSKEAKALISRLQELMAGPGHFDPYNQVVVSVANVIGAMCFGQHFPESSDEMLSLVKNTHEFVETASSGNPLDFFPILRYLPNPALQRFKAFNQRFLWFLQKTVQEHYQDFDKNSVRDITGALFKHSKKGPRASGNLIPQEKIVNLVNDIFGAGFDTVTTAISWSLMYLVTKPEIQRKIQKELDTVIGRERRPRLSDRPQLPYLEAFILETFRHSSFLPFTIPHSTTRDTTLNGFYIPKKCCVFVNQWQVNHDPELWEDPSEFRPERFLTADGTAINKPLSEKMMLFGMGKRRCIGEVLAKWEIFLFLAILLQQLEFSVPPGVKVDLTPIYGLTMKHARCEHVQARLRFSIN

Cytochrome P450 2C9 = Cytochrome P450 2C9 (Homo sapiens, UniProt P11712); test: Inhibition of CYP2C9 in human liver microsomes; type: ADME, Microsome
Chain of Cytochrome P450 2C9 (P11712 whole entry): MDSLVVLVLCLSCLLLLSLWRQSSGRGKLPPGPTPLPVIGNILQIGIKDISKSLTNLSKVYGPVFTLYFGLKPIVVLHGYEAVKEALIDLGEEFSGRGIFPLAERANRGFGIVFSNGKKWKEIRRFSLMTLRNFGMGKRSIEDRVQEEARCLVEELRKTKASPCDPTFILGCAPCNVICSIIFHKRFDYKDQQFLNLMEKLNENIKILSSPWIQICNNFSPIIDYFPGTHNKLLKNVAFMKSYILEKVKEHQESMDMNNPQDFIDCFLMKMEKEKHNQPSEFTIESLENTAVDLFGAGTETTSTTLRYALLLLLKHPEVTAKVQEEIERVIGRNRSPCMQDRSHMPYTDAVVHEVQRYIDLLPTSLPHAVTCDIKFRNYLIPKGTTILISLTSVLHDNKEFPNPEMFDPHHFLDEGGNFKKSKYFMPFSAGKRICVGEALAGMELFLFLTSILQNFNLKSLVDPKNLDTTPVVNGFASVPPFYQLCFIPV

Cytochrome P450 2C19 = Cytochrome P450 2C19 (Homo sapiens, UniProt P33261); test: Inhibition of CYP2C19 in human liver microsomes; type: ADME, Microsome
Chain of Cytochrome P450 2C19 (P33261 whole entry, canonical isoform): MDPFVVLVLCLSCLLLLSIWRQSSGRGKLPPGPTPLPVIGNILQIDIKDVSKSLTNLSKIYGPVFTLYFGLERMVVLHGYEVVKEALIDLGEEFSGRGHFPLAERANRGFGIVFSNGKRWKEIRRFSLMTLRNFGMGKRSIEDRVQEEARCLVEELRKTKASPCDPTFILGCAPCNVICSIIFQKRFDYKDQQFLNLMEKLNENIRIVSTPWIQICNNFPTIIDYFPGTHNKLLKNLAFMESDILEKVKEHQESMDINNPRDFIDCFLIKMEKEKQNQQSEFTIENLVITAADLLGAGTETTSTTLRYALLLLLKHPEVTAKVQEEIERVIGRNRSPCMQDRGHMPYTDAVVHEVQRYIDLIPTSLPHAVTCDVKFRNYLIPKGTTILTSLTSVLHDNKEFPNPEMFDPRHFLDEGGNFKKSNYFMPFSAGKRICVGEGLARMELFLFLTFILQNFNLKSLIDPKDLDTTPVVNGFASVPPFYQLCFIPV

Cytochrome P450 3A4 [5] = biological target: T4, Cytochrome P450 3A4 (Homo sapiens, UniProt P08684); test: Inhibition of CYP3A4 […] isoform in human liver microsomes; type: ADME, Microsome
T4 sequence (P08684 whole entry, canonical isoform): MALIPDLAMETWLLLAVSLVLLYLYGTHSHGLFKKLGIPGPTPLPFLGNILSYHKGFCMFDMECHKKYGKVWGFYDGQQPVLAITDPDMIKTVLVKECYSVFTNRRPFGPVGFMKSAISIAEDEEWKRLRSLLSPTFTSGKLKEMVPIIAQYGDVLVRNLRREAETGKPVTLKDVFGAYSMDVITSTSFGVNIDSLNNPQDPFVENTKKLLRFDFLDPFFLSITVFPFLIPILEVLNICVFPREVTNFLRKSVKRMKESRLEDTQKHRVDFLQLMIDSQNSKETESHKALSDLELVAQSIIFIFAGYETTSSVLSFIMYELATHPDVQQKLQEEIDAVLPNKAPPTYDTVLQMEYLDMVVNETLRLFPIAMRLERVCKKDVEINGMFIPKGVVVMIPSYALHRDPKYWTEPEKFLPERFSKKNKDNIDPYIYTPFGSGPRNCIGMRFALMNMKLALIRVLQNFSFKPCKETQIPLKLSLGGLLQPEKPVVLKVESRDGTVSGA

Cytochrome P450 3A4 [6] = biological target: T4, Cytochrome P450 3A4; test: Inhibition of CYP3A4 tissue isoform in human liver microsomes; type: ADME, Microsome
[7] = Oral bioavailability in rat at 10 mg/kg; type: ADME, organism-based; settings: in vivo
[8] = AUC in rat at 10 mg/kg, po and 2 mg/kg, iv; type: ADME, organism-based; settings: plasma
[9] = Tmax in rat at 10 mg/kg, po and 2 mg/kg, iv; type: ADME, organism-based; settings: in vivo
[10] = Clearance in rat at 10 mg/kg, po and 2 mg/kg, iv; type: ADME, organism-based; settings: in vivo
[11] = Volume of distribution at steady state in rat at 10 mg/kg, po and 2 mg/kg, iv; type: ADME, organism-based; settings: in vivo, read-out: Vdss
Mus musculus [12] = test: Increase in HDL cholesterol level in normal chow diet fed female CETP transgenic mouse at 3 mg/kg, po after 5 days; type: functional
Mus musculus [13] = test: Increase in HDL cholesterol level in normal chow diet fed female CETP transgenic mouse at 10 mg/kg, po after 5 days; type: functional
Mus musculus [14] = test: Increase in HDL cholesterol level in normal chow diet fed female CETP transgenic mouse at 30 mg/kg, po after 5 days; type: functional
Mus musculus [15] = test: Increase in HDL cholesterol level in normal chow diet fed male CETP transgenic mouse at 3 mg/kg, po after 5 days; type: functional
Mus musculus [16] = test: Increase in HDL cholesterol level in normal chow diet fed male CETP transgenic mouse at 10 mg/kg, po after 5 days; type: functional
Mus musculus [17] = test: Increase in HDL cholesterol level in normal chow diet fed male CETP transgenic mouse at 30 mg/kg, po after 5 days; type: functional
Hamster [18] = test: Increase in HDL cholesterol level in high fat diet fed hamster at 10 mg/kg, po after 5 days; type: functional, Cricetinae
Hamster [19] = test: Increase in HDL cholesterol level in high fat diet fed hamster at 30 mg/kg, po after 5 days; type: functional, Cricetinae
[20] = Aqueous solubility at pH 2.0; type: physicochemical; settings: aqueous medium
[21] = Aqueous solubility at pH 7.4; type: physicochemical; settings: aqueous medium

Q: Which inhibition [1] does the source give for `OC(CN1c2cccc(-c3cccc(OC(F)(F)F)c3)c2OCC1c1cccc(C(F)(F)F)c1)C(F)(F)F` (mixture of isomers) here?
A: 37%

Q: For `O[C@H](CN1c2cccc(-c3cccc(OC(F)(F)F)c3)c2OC[C@@H]1c1cccc(OC(F)(F)C(F)F)c1)C(F)(F)F`, which inhibition [1] is on record?
A: 23%

Q: With `C[C@@H](O)CN1c2cccc(-c3cccc(OC(F)(F)F)c3)c2OC[C@@H]1c1cccc(OC(F)(F)C(F)F)c1` as the compound, how does the inhibition [1] read?
A: 28%

Q: With `CC1(C)OC[C@@H](CN2c3cccc(-c4cccc(OC(F)(F)F)c4)c3OC[C@@H]2c2cccc(OC(F)(F)C(F)F)c2)O1` (mixture of isomers) as the compound, how does the inhibition [1] read?
A: 25%

Q: For `O=C(CN1c2cccc(-c3cccc(OC(F)(F)F)c3)c2OC[C@@H]1c1cccc(OC(F)(F)C(F)F)c1)C(F)(F)F`, which inhibition [1] is on record?
A: 5%

Q: Which inhibition [1] does the source give for `OCCCN1c2cccc(-c3cccc(OC(F)(F)F)c3)c2OCC1c1cccc(OC(F)(F)C(F)F)c1` (racemic) here?
A: 10%

Q: With `OCCN1c2cccc(-c3cccc(OC(F)(F)F)c3)c2OCC1c1cccc(OC(F)(F)C(F)F)c1` (racemic) as the compound, how does the inhibition [1] read?
A: 29%

Q: With `CCCN1c2cccc(-c3cccc(OC(F)(F)F)c3)c2OCC1c1cccc(OC(F)(F)C(F)F)c1` (racemic) as the compound, how does the inhibition [1] read?
A: 39%

Q: Which inhibition [1] does the source give for `O[C@@H](CN1c2cccc(-c3cc(F)cc(F)c3)c2OC[C@@H]1c1cccc(OC(F)(F)C(F)F)c1)C(F)(F)F` here?
A: 100%

Q: For `OC(CN1c2cccc(-c3cccc(OC(F)(F)F)c3)c2OCC1c1cccc(OC(F)(F)C(F)F)c1)C(F)(F)F` (mixture of isomers), which IC50 [2] is on record?
A: 0.045 µM

Q: And the inhibition [1]?
A: 96%

Q: For `NCCN1c2cccc(-c3cccc(OC(F)(F)F)c3)c2OCC1c1cccc(OC(F)(F)C(F)F)c1` (racemic), which inhibition [1] is on record?
A: 2%

Q: For `O[C@H](CN1c2cccc(-c3cccc(OC(F)(F)F)c3)c2OC[C@H]1c1cccc(OC(F)(F)C(F)F)c1)C(F)(F)F`, which inhibition [1] is on record?
A: 26%

Q: For `COC(=O)N1c2cccc(-c3cccc(OC(F)(F)F)c3)c2OCC1c1cccc(OC(F)(F)C(F)F)c1` (racemic), which inhibition [1] is on record?
A: 16%

Q: For `CCN1c2cccc(-c3cccc(OC(F)(F)F)c3)c2OCC1c1cccc(OC(F)(F)C(F)F)c1` (racemic), which inhibition [1] is on record?
A: 24%

Q: With `O[C@@H](CN1c2cccc(-c3cc(F)c(F)c(F)c3)c2OC[C@@H]1c1cccc(OC(F)(F)F)c1)C(F)(F)F` as the compound, how does the inhibition [1] read?
A: 94%

Q: With `O[C@H](CF)CN1c2cccc(-c3cccc(OC(F)(F)F)c3)c2OC[C@@H]1c1cccc(OC(F)(F)C(F)F)c1` as the compound, how does the inhibition [1] read?
A: 77%

Q: And the half-life [3]?
A: 0.35 h

Q: For `OC(CN1c2cccc(-c3cccc(OC(F)(F)F)c3)c2OCC1c1ccc(OC(F)(F)C(F)F)cc1)C(F)(F)F` (mixture of isomers), which inhibition [1] is on record?
A: 33%

Q: With `COCCN1c2cccc(-c3cccc(OC(F)(F)F)c3)c2OCC1c1cccc(OC(F)(F)C(F)F)c1` (racemic) as the compound, how does the inhibition [1] read?
A: 25%

Q: With `FC(F)C(F)(F)Oc1cccc(C2COc3c(-c4cccc(OC(F)(F)F)c4)cccc3N2CCN2CCOCC2)c1` (racemic) as the compound, how does the inhibition [1] read?
A: 0%

Q: Which results are given for `O[C@@H](CN1c2cccc(-c3cccc(OC(F)(F)F)c3)c2OC[C@@H]1c1cccc(OC(F)(F)C(F)F)c1)C(F)(F)F`?
A: inhibition [1]: 91%; half-life [3]: 1.03 h; IC50 (Cytochrome P450 2D6): > 100 µM; IC50 [4]: 1 µM; IC50 (Cytochrome P450 1A2): > 100 µM; IC50 (Cytochrome P450 2C9): > 100 µM; IC50 (Cytochrome P450 2C19): > 100 µM; IC50 (Cytochrome P450 3A4 [5]): > 100 µM; IC50 (Cytochrome P450 3A4 [6]): > 100 µM; bioavailability [7]: 53%; AUC [8]: 19800 ng·h/mL; Tmax [9]: 11.5 h; clearance [10]: 4.6 mL/min/kg; Vd [11]: 0.73 L/kg; Activity (Mus musculus [12]): 4%; Activity (Mus musculus [13]): 8%; Activity (Mus musculus [14]): 24%; Activity (Mus musculus [15]): 11%; Activity (Mus musculus [16]): 10%; Activity (Mus musculus [17]): 28%; Activity (Hamster [18]): 9%; Activity (Hamster [19]): 16%; solubility [20]: 11 µg/mL (≈ 18.4 µM); solubility [21]: 2.7 µg/mL (≈ 4.5 µM)

Q: With `O[C@@H](CN1c2cccc(-c3cc(F)c(F)c(F)c3)c2OC[C@@H]1c1cccc(OC(F)(F)C(F)F)c1)C(F)(F)F` as the compound, how does the inhibition [1] read?
A: 101%
